One assay has as its system Sarcoma 180 ascites. Put plainly: S180a screening (Sarcoma 180 ascites tumor model), increase in life span. It counts as in vivo, CFW mice. Particulars: for Surv.: survivors on day of evaluation. The procedure: CFW mice, averaging 20 g, are innoculated on day zero with 0.2 mL of a freshly prepared saline suspension (0.15 M NaCI) containing 1 × 10^7 tumor cells/mL, or a total of 2 x 10^6 cells. On day I, the mice are injected with the test compound in the selected medium (usually water). Six mice are used per test dose, with six doses normally being run.
Also, on day one, two types of controls (6 mice/set are employed: (1) Normal (1 set): 0.5 mL of the solvent medium used for the test compound, and (2) Positive control (1 set): cis-[Pt(NH3)2Cl2] in saline at 8 mg/kg.
The effectiveness of a compound is measured in terms of the increase in life span (ILS) of the test animals relative to the controls calculated from the day of tumor inoculation (day zero). The day of evaluation is arbitrarily taken as that day corresponding to twice the mean life-span of the normal controls. This sets a practical upper limit of 100% on the ILS attainable. For calculation purposes, survivors on the day of evaluation are considered to have died on that day. The % ILS is formulated as: [formula]
ILS values above 50% represent activity. The positive controls must have an ILS of ≧ 50% for the test to be valid.

For another assay, the system named is L1210 leukemia. Put plainly: L1210 screening (L1210 leukemia tumor model), increase in life span. It counts as in vivo, Female CDF1 mice. Conditions: for Surv.: survivors. The procedure:
Female CDF1 mice (16-22 g) are injected with a suspension of 1 x 10^6 tumor cells in 0.5 mL of 0.15 M saline on day zero. On day one, the mice receive the test compound in 0.5 mL of the chosen medium (usually water). Six mice were used for each test dose, with six doses normally being run. Normal controls (six mice) receive tumor on day zero and 0.5 mL of the test medium on day one. Positive controls (six mice) receive tumor on day zero and 8 mg/kg cisplatin in 0.5 mL of 0.15 M saline on day one. All compound doses are adjusted for the actual average weight of the mice involved. Testing is terminated at three times the normal control mean life span. The percent increase in lifespan (ILS) is calculated as follows: %ILS = [(mean life span (test)/mean life span(control)-I]x100 A 25% ILS or greater indicates activity. The maximum possible ILS is 200%. The positive control must have an ILS of S 25% for the test to be considered valid.
The tumor line is maintained by transfer of 5 x 10^4- cells in 0.1 mL saline every seven days. DBA/2 (18-22 g) mice are employed for tumor transfers

[1] abbreviates: dose 40.00 mg/kg on day 1, vehicle water.
Setting [2] is: dose 80.00 mg/kg on day 1, vehicle water.
Setting [3] is: dose 160.00 mg/kg on day 1, vehicle water.
Setting [4] is: dose 5.00 mg/kg on day 1, vehicle water.
The mark [5] stands for this setting: dose 10.00 mg/kg on day 1, vehicle water.
Where [6] appears, read: dose 20.00 mg/kg on day 1, vehicle water.
The mark [7] stands for this setting: dose 320.00 mg/kg on day 1, vehicle water.
The mark [8] stands for this setting: dose 5.00 mg/kg on day 1, vehicle water, pH7.
Setting [9] is: dose 10.00 mg/kg on day 1, vehicle water, pH7.
Where [10] appears, read: dose 20.00 mg/kg on day 1, vehicle water, pH7.
The mark [11] stands for this setting: dose 40.00 mg/kg on day 1, vehicle water, pH7.
The mark [12] stands for this setting: dose 80.00 mg/kg on day 1, vehicle water, pH7.
Where [13] appears, read: dose 160.00 mg/kg on day 1, vehicle water, pH7.

Molecules are shown by their SMILES.

As for `NC1CCCCC1N.O=C1[O][Pt][O]P(=O)([O-])C1c1ccccc1.[Na+]` (mixture of isomers) [Ex 6, Na[Pt(trans-R,R-dach)(2-phosphonophenytacetate)]], the “%ILS” value in the assay on Sarcoma 180 ascites (setting [1]) is listed as 24%; in the assay on Sarcoma 180 ascites (setting [2]) it was 88%; in the assay on Sarcoma 180 ascites (setting [3]), 102%; in the assay on L1210 leukemia (setting [4]), 2%; in the assay on L1210 leukemia (setting [5]), 6%; in the assay with L1210 leukemia (setting [6]), 26%. For the same compound, the “%ILS” value with L1210 leukemia (setting [1]) is 47%; in the assay on L1210 leukemia (setting [2]) it was 53%; with L1210 leukemia (setting [3]) it was 76%. Besides, the Surv. is 0/ 6 with Sarcoma 180 ascites (setting [1]); 2/ 6 with Sarcoma 180 ascites (setting [2]); 5/ 6 in the assay with Sarcoma 180 ascites (setting [3]); 0/ 6 with L1210 leukemia (setting [4]); 0/ 6 with L1210 leukemia (setting [5]); 0/ 6 in the assay with L1210 leukemia (setting [6]). In addition, the Surv. with L1210 leukemia (setting [1]), in the assay on L1210 leukemia (setting [2]) and with L1210 leukemia (setting [3]) was 0/ 6 throughout.
For `CC(N)CN.CCC1C(=O)[O][Pt][O]P1(=O)[O-].[Na+]` (mixture of isomers) [Ex 8, Na[Pt(pn)(2-phosphonobutyrate)]], the “%ILS” value in the assay on Sarcoma 180 ascites (setting [4]) is listed as 4%; in the assay with Sarcoma 180 ascites (setting [5]), 19%; in the assay on Sarcoma 180 ascites (setting [6]), 4%; in the assay with Sarcoma 180 ascites (setting [1]) it was 46%; with Sarcoma 180 ascites (setting [2]), 38%; in the assay on Sarcoma 180 ascites (setting [3]), 95%. Further, the “%ILS” value is -6% in the assay on L1210 leukemia (setting [5]); -9% in the assay with L1210 leukemia (setting [6]); 0% in the assay with L1210 leukemia (setting [1]); -2% in the assay with L1210 leukemia (setting [2]); 16% in the assay with L1210 leukemia (setting [3]); -44% with L1210 leukemia (setting [7]). Also, the Surv. with Sarcoma 180 ascites (setting [4]) is reported as 0/ 6; in the assay on Sarcoma 180 ascites (setting [5]) it was 0/ 6; in the assay on Sarcoma 180 ascites (setting [6]) it was 0/ 6; with Sarcoma 180 ascites (setting [1]), 0/ 6; in the assay with Sarcoma 180 ascites (setting [2]), 0/ 6; with Sarcoma 180 ascites (setting [3]), 4/ 6. Also, the Surv. in the assay on L1210 leukemia (setting [5]), in the assay on L1210 leukemia (setting [6]), in the assay with L1210 leukemia (setting [1]), in the assay with L1210 leukemia (setting [2]), with L1210 leukemia (setting [3]) and in the assay on L1210 leukemia (setting [7]) was 0/ 6 in each case.
On to `CC(N)CN.O=C1CP(=O)(O)[O][Pt][O]1` (racemic) [Ex 10, H[Pt(pn)(phasphonoacetate)]], for which the “%ILS” value in the assay with Sarcoma 180 ascites (setting [6]) is 77%; with Sarcoma 180 ascites (setting [1]), 9%; with Sarcoma 180 ascites (setting [2]) it was -71%; in the assay with Sarcoma 180 ascites (setting [3]), -78%; with Sarcoma 180 ascites (setting [7]), -79%; with L1210 leukemia (setting [4]) it was -5%. The “%ILS” value with L1210 leukemia (setting [5]) is on record as 2%; in the assay with L1210 leukemia (setting [6]), -13%; with L1210 leukemia (setting [1]) it was -13%; with L1210 leukemia (setting [2]) it was -34%; with L1210 leukemia (setting [3]) it was -52%. Moreover, the Surv. was 3/ 6 with Sarcoma 180 ascites (setting [6]); 1/ 6 with Sarcoma 180 ascites (setting [1]); 0/ 6 with Sarcoma 180 ascites (setting [2]); 0/ 6 in the assay on Sarcoma 180 ascites (setting [3]); 0/ 6 with Sarcoma 180 ascites (setting [7]); 0/ 6 with L1210 leukemia (setting [4]). For the same compound, the Surv. in the assay on L1210 leukemia (setting [5]), in the assay on L1210 leukemia (setting [6]), with L1210 leukemia (setting [1]), in the assay with L1210 leukemia (setting [2]) and in the assay on L1210 leukemia (setting [3]) was 0/ 6 in each case.
Turning to `CCC1C(=O)[O][Pt][O]P1(=O)[O-].N.N.[Na+]` (racemic) [Ex 14, Na[cis-Pt(NH3)2(2-phosphonobutyrate)]], the “%ILS” value is -10% in the assay on L1210 leukemia (setting [5]); -8% in the assay on L1210 leukemia (setting [6]); -15% with L1210 leukemia (setting [1]); -5% with L1210 leukemia (setting [2]); -67% in the assay with L1210 leukemia (setting [3]); -80% in the assay on L1210 leukemia (setting [7]). In addition, the Surv. in the assay on L1210 leukemia (setting [5]), in the assay with L1210 leukemia (setting [6]), in the assay on L1210 leukemia (setting [1]), with L1210 leukemia (setting [2]), with L1210 leukemia (setting [3]) and with L1210 leukemia (setting [7]) was 0/ 6 throughout.
Regarding `CCC(C)(C(=O)[O-])P(=O)([O-])[O-].N[C@@H]1CCCC[C@H]1N.[Na+].[Pt+2]` (relative stereo) [Ex 22, Na[Pt(trans-R,R-dach)(2-methyl-2-phosphonobutyrate)]], the “%ILS” value in the assay with Sarcoma 180 ascites (setting [5]) was 28%; with Sarcoma 180 ascites (setting [6]) it was 20%; with Sarcoma 180 ascites (setting [1]), 82%; in the assay with Sarcoma 180 ascites (setting [2]), 100%; in the assay with Sarcoma 180 ascites (setting [3]) it was 86%; with Sarcoma 180 ascites (setting [7]), -78%. In addition, the “%ILS” value in the assay with L1210 leukemia (setting [5]) was 45%; in the assay with L1210 leukemia (setting [6]) it was 35%; with L1210 leukemia (setting [1]), 70%; with L1210 leukemia (setting [2]) it was 94%; with L1210 leukemia (setting [3]), 114%; with L1210 leukemia (setting [7]) it was -39%. Moreover, the Surv. is on record as 1/ 6 in the assay with Sarcoma 180 ascites (setting [5]); 0/ 6 with Sarcoma 180 ascites (setting [6]); 4/ 6 with Sarcoma 180 ascites (setting [1]); 6/ 6 in the assay with Sarcoma 180 ascites (setting [2]); 2/ 6 in the assay with Sarcoma 180 ascites (setting [3]); 0/ 6 in the assay on Sarcoma 180 ascites (setting [7]). The Surv. was 0/ 6 in the assay on L1210 leukemia (setting [5]); 0/ 6 in the assay with L1210 leukemia (setting [6]); 1/ 6 in the assay with L1210 leukemia (setting [1]); 1/ 6 in the assay on L1210 leukemia (setting [2]); 3/ 6 in the assay on L1210 leukemia (setting [3]); 0/ 6 in the assay on L1210 leukemia (setting [7]).
`NCCN.O=C1CP(=O)(O)[O][Pt][O]1` [Ex 16, H[Pt(en)(phosphonoacetate)]]: the “%ILS” value is reported as -2% with Sarcoma 180 ascites (setting [4]); -3% in the assay on Sarcoma 180 ascites (setting [8]); 3% in the assay with Sarcoma 180 ascites (setting [5]); 2% with Sarcoma 180 ascites (setting [9]); 29% in the assay on Sarcoma 180 ascites (setting [6]); 14% in the assay on Sarcoma 180 ascites (setting [10]). Besides, the “%ILS” value in the assay on Sarcoma 180 ascites (setting [1]) was 64%; with Sarcoma 180 ascites (setting [11]), 72%; in the assay on Sarcoma 180 ascites (setting [2]) it was 84%; in the assay on Sarcoma 180 ascites (setting [12]), 93%; in the assay on Sarcoma 180 ascites (setting [3]) it was 85%; in the assay with Sarcoma 180 ascites (setting [13]), -32%. In addition, the Surv. with Sarcoma 180 ascites (setting [8]) is reported as 0/ 6; in the assay on Sarcoma 180 ascites (setting [4]) it was 0/ 6; in the assay with Sarcoma 180 ascites (setting [9]), 0/ 6; with Sarcoma 180 ascites (setting [5]), 0/ 6; in the assay with Sarcoma 180 ascites (setting [10]) it was 0/ 6; in the assay on Sarcoma 180 ascites (setting [6]) it was 1/ 6. The Surv. with Sarcoma 180 ascites (setting [11]) was 2/ 6; with Sarcoma 180 ascites (setting [1]), 3/ 6; with Sarcoma 180 ascites (setting [12]), 4/ 6; with Sarcoma 180 ascites (setting [2]) it was 4/ 6; in the assay on Sarcoma 180 ascites (setting [13]) it was 1/ 6; in the assay with Sarcoma 180 ascites (setting [3]) it was 3/ 6.
For `N.N.O=C1CP(=O)([O-])[O][Pt][O]1.[Na+]` [Ex 21, Na(cis-Pt(NH3)2(phosphonoacetate)]], the “%ILS” value with L1210 leukemia (setting [5]) is -10%; with L1210 leukemia (setting [6]), -5%; in the assay with L1210 leukemia (setting [1]), 13%; in the assay with L1210 leukemia (setting [2]), 12%; in the assay on L1210 leukemia (setting [3]), 10%; in the assay with L1210 leukemia (setting [7]), -80%. The Surv. in the assay on L1210 leukemia (setting [5]), in the assay on L1210 leukemia (setting [6]), in the assay with L1210 leukemia (setting [1]), with L1210 leukemia (setting [2]), with L1210 leukemia (setting [3]) and with L1210 leukemia (setting [7]) was 0/ 6 in each case.

The values are drawn from patent EP0290169A2, “Diamineplatinum complexes with phosphonocarboxylate and substituted phosphonocarboxylate ligands as antitumor agents” (ENGELHARD CORPORATION, priority 1987, dated 1988).
